No end group written: not given here.
Experiments:
[1] = system: S. mutans mature biofilms; experiment: Mature biofilm eradication, crystal violet; format: cell-based, Streptococcus mutans; details: 24 h mature S. mutans biofilms, 24 h treatment, CV staining, absorbance 590 nm
Description: To evaluate the ability of the peptides to eradicate the mature biofilms of S. mutans, the bacteria (the final concentration of 1 × 10^6 CFU/mL) were seeded in a flat bottom 96-well plate for 24 h to obtain the mature biofilms. The planktonic bacteria were washed away, and the peptides with the concentrations of 3.1–50 μM were added. After treatment for 24 h, CV was used for staining and quantification as described above. The biofilms untreated with the peptides served as the negative control. MBEC50 was defined as the lowest peptide concentration that removed 50% of the mature biofilm.

S. mutans biofilms = format: cell-based, Streptococcus mutans; details: S. mutans in BHI with 1% sucrose, 24 h anaerobic, CV staining, absorbance 590 nm
Description: CV was used to detect the effects of the peptides on the formation of biofilm and the eradication of mature biofilm. 100 μL of S. mutans in the logarithmic phase was diluted in BHI (containing 1% sucrose) to the concentration of 2 × 10^6 CFU/mL. The suspensions were added to the equal volume of the peptides (the final concentrations of 0.8–12.5 μM). After incubation at 37 °C under anaerobic conditions for 24 h, the supernatant was discarded. The plate was irrigated with PBS carefully to wash away the planktonic bacteria. After fixing with anhydrous methanol for 15 min, 0.5% CV was added to each well for staining the biofilms. The excess CV was washed away by PBS (pH 7.2), and the bound CV was dissolved with anhydrous methanol. A microplate reader (Multiskan Spectrum, BioTek, Winuski, VT, USA) was used to measure the absorbance value of 590 nm. MBIC50 was defined as the lowest peptide concentration that inhibited 50% of biofilm formation.

[2] = system: Human red blood cells (hRBCs); format: cell-based
Description: The hemolytic toxicity of the peptides was determined as described. Human red blood cells (hRBCs) were washed with phosphate-buffered saline (PBS, pH 7.2) and centrifuged at 1000× g for 10 min at 4 °C until the supernatant was clear. 4% hRBCs and an equal volume of the peptides with different concentrations were incubated at 37 °C for 1 h. After incubation, the supernatant was collected by centrifugation, and 150 μL was transferred to a new 96-well plate (Corning, New York, NY, USA). The absorbance at 450 nm was measured. The 0.1% Triton X-100 was used as the positive control, and PBS was used as the negative control. The minimum hemolysis concentration (MHC) was defined as the lowest concentration of peptide that causes 10% hemolysis, and HL50 was the lowest concentration that causes 50% hemolysis. CSI was defined as the ratio of HL50 to MIC [31].

[3] = system: Candida albicans (ATCC 10231); format: cell-based
From the text: (§1) The strains were used in the experiments, including Gram-positive bacteria Staphylococcus aureus (ATCC 25923), Bacillus subtilis (ATCC 6633), Streptococcus mutans (ATCC 25175), Methicillin-resistant Staphylococcus aureus (ATCC 43300), Methicillin-resistant Staphylococcus aureus 1–3 (clinically isolated, number 1–3), Gram-negative bacteria Escherichia coli (ATCC 25922), E. coli (D 31), Pseudomonas aeruginosa (ATCC 15442), P. aeruginosa PAO1 (wild type), and the fungus Candida albicans (ATCC 10231). S. mutans was cultured in Brain Heart Infusion Broth (BHI, Beijing Land Bridge, China) under anaerobic condition; C. albicans was grown in Sabouraud Dextrose Broth (SDB, HuanKai Microbial, Guangzhou, China); and the other bacterial strains were grown in Tryptic Soy Broth (TSB, HuanKai Microbial, Guangzhou, China). All bacteria and fungi were cultivated to the logarithmic phase at 37 °C before experiments were performed.
(§2) The antimicrobial activities of the peptides were measured by the two-fold dilution method. Each strain was inoculated in the medium and cultivated to the logarithmic phase. A series of diluted peptides (concentrations of 3.1–100 μM, 50 μL) were prepared in a 96-well plate (Corning, New York, NY, USA), and the same volume of the bacterial suspension (the final concentration of 1 × 10^6 CFU/mL) was added. After incubation at 37 °C for 18–24 h, the absorbance at 600 nm was measured by using a microplate reader (Multiskan Spectrum, BioTek, Winuski, VT, USA). […] All tests were performed in triplicate independent experiments.
(§3) From the MIC measuring plates, 50 μL of bacteria suspension in the presence of peptides when the concentrations were equal and up to MICs was spread on the BHI agar medium, and incubated at 37 °C for 24 h. The peptide concentration with no bacterial growth was defined as MBC [33].

[4] = system: Streptococcus mutans (ATCC 25175); format: cell-based
From the text: as §1, §2, §3

[5] = system: Staphylococcus aureus (ATCC 25923); format: cell-based
From the text: as §1, §2, §3

[6] = system: Bacillus subtilis (ATCC 6633); format: cell-based
From the text: as §1, §2, §3

[7] = system: Escherichia coli (ATCC 25922); format: cell-based
From the text: as §1, §2, §3

[8] = system: Pseudomonas aeruginosa (ATCC 15442); format: cell-based
From the text: as §1, §2, §3

[9] = system: methicillin-resistant S. aureus (ATCC 43300); format: cell-based, Staphylococcus aureus
From the text: as §1, §2, §3

[10] = system: MRSA-2, methicillin-resistant S. aureus (clinically isolated, No.2); format: cell-based, Staphylococcus aureus
From the text: as §1, §2, §3

[11] = system: MRSA-1, methicillin-resistant S. aureus (clinically isolated, No.1); format: cell-based, Staphylococcus aureus
From the text: as §1, §2, §3

[12] = system: MRSA-3, methicillin-resistant S. aureus (clinically isolated, No.3); format: cell-based, Staphylococcus aureus
From the text: as §1, §2, §3

[13] = system: E. coli (D31), anti-streptomycin strain; format: cell-based, Escherichia coli; details: 37 °C
From the text: as §1, §2, §3

[14] = system: P. aeruginosa PAO1 (wild type); format: cell-based, Pseudomonas aeruginosa
From the text: as §1, §2, §3

FLQRIIGRLGRLF [GHaR8R]
MBEC50 (lowest peptide concentration that removed 50% of the mature biofilm) [1]: 12.5 µM
time to complete eradication: < 15 min
MBIC50 (lowest peptide concentration that inhibited 50% of biofilm formation) (S. mutans biofilms): 1.6 µM
HL50 relative to that of GHaR [2]: 1–5 times higher
MIC ([3]; ATCC 10231): 12.5 µM
MBC ([3]; ATCC 10231, 24 h): 12.5 µM
MIC ([4]; ATCC 25175): 6.2 µM
MBC ([4]; ATCC 25175, 24 h): 6.2 µM
MIC ([5]; ATCC 25923): 1.6 to 3.1 µM
MBC ([5]; ATCC 25923, 24 h): 3.1 µM
MIC ([6]; ATCC 6633): 12.5 µM
MBC ([6]; ATCC 6633, 24 h): 12.5 µM
MIC ([7]; ATCC 25922): 3.1 µM
MBC ([7]; ATCC 25922, 24 h): 3.1 µM
MIC ([8]; ATCC 15442): 50 µM
MBC ([8]; ATCC 15442, 24 h): > 50 µM
MIC ([9]; ATCC 43300): 3.1 µM
MBC ([9]; ATCC 43300, 24 h): 3.1 µM
MIC ([10]; -2, methicillin-resistant (clinically isolated, No.2)): 3.1 µM
MBC ([10]; -2, methicillin-resistant (clinically isolated, No.2, 24 h)): 12.5 µM
MIC ([11]; -1, methicillin-resistant (clinically isolated, No.1)): 6.2 µM
MBC ([11]; -1, methicillin-resistant (clinically isolated, No.1, 24 h)): 6.2 µM
MIC ([12]; -3, methicillin-resistant (clinically isolated, No.3)): 6.2 µM
MBC ([12]; -3, methicillin-resistant (clinically isolated, No.3, 24 h)): 12.5 µM
MIC ([13]; TSB, 1 × 10^6 CFU/mL, 18–24 h, absorbance 600 nm, triplicate, first value of cell): 12.5 µM
MBC ([13]; plated from MIC wells on agar, 24 h, no growth, second value of cell): 25 µM
MIC ([14]; PAO1): 6.2 µM
MBC ([14]; PAO1, 24 h): 12.5 µM

— paper PMC7730238, “Temporin-Like Peptides Show Antimicrobial and Anti-Biofilm Activities against Streptococcus mutans with Reduced Hemolysis” (Molecules, 2020)
